Active and inactive are the calls of the source. How the calls were made is not given here.

Tested on in the first assay: not listed separately
Put plainly: inducers of V. cholerae light production, dose response, BH1578, luxS and cqsA deficient, dry powder (AID 651854). The conditions noted are these: V. cholerae BH1578 lux reporter, luminescence, 6 h; at 30 µM (top of the series).
In the case of `CC(C)NC(=O)Nc1ccc2c(c1)C(=O)N([C@H](C)CO)C[C@H](C)[C@@H](CN(C)Cc1ccncc1)OCCCC[C@@H](C)O2`, the light induction is 3.45% (inactive).

The assay is the same for the next values; noted with them: V. cholerae BH1578 lux reporter, luminescence, 6 h; at 35 µM (top of the series).
For `C[C@H](CO)N1C[C@H](C)[C@@H](CN(C)C(=O)NC2CCCCC2)OCc2ccccc2-c2c(n(C)c3ccccc23)C1=O`, the light induction is 0% (inactive).
For the compound `C[C@H]1CN([C@@H](C)CO)C(=O)c2cc(NC(=O)CCC(F)(F)F)ccc2O[C@H]1CN(C)Cc1ccc(Cl)c(Cl)c1`, the light induction is 1.05% (inactive).
In the case of `CCOC(=O)c1cc2c(c(-c3cccc(Br)c3)n1)[C@@H](CCO)N(C(=O)NC(C)C)C2`, the light induction was 0.322% (inactive).
Regarding `CO[C@H]1CN(C)C(=O)c2cccc(C#N)c2OCC[C@@H]2CC[C@@H](OC)[C@@H](CN(C)C(=O)[C@H]1C)O2`, the light induction is 5.31% (inactive).
On to `C[C@H]1CN([C@@H](C)CO)C(=O)Cc2cc(NS(C)(=O)=O)ccc2O[C@H]1CN(C)Cc1ccc(-c2ccccc2)cc1`, for which the light induction is -0.148% (inactive).
As for `O=[N+]([O-])c1ccc(N(CCO)CCO)c2c1no[n+]2[O-]`, the light induction is 9.14% (inactive).
As to `C[C@@H]1CN([C@@H](C)CO)S(=O)(=O)c2ccc(-c3ccncc3)cc2O[C@@H]1CN(C)S(=O)(=O)c1ccccc1F`, the light induction is 0.546% (inactive).
As to `C[C@H]1CCCCO[C@H](CN(C)C(=O)c2ccccc2)[C@@H](C)CN([C@@H](C)CO)C(=O)c2cc(NC(=O)c3ccccc3)ccc2O1`, the light induction is -0.733% (inactive).
In the case of `O=C(C[C@@H]1CC[C@@H]2[C@H](COC[C@H](O)CN2Cc2ccc(C(F)(F)F)cc2)O1)N1CCc2ccccc2C1`, the light induction was 0.313% (inactive).
In the case of `CC=Cc1ccc2n(c1=O)C[C@@H]1[C@@H](CO)[C@H](C(=O)NCC)N(Cc3ccccc3Cl)[C@H]21` (mixture of isomers), the light induction was 0.694% (inactive).
`CN1C(=O)c2cc(NS(C)(=O)=O)ccc2OC[C@@H]2O[C@H](CC(=O)NCc3ccc(-c4ccccc4)cc3)CC[C@@H]21`: the light induction was 0.313% (inactive).
With `COCC(=O)N[C@@H]1C=C[C@H](CC(=O)N2CCCCC2)O[C@@H]1CO`, the light induction is 0.262% (inactive).
Same read-out and setting: as for `CCCC#Cc1cnc2c(c1)C(=O)N([C@H](C)CO)C[C@H](C)[C@H](CN(C)C(=O)CCN1CCCCC1)O2`, the figure is -0.148% (inactive); as for `Cn1nc(NC(=O)c2ccco2)c2c(F)cccc21`, -0.824% (inactive); as for `COc1ccc(CNC(=O)N(C)C[C@@H]2OCc3ccccc3-c3c(n(C)c4ccccc34)C(=O)N([C@@H](C)CO)C[C@H]2C)cc1`, 1.27% (inactive).
Take `C[C@H](CO)N1C[C@H](C)[C@H](CN(C)C(=O)Cc2ccncc2)Oc2cc(C3=CCCCC3)ccc2S1(=O)=O`: the light induction was 0.158% (inactive).
Still for that read-out and setting: as for `O=[N+]([O-])c1ccc(N2CCOCC2)c2c1no[n+]2[O-]`, the figure is 0.322% (inactive).
Still for that read-out and setting: as for `Cc1ccc2cc3c(NC(=O)c4ccccc4)nn(C)c3nc2c1`, the figure is 0.503% (inactive); as for `CO[C@@H]1CC[C@H]2CCOc3ccc(C#N)cc3C(=O)N(C)[C@H](C)C(=O)N(C)C[C@@H]1O2`, 0.313% (inactive).
As for `CCC(=O)Nc1nn(C)c2nc3cc(C)ccc3cc12`, the light induction is -0.824% (inactive).
Regarding `O=C(N[C@@H]1C=C[C@H](CC(=O)N2CCCCC2)O[C@H]1CO)c1ccc2c(c1)OCO2`, the light induction is 0% (inactive).
Regarding `O=C(O)C[C@@H]1CC[C@H](NC(=O)c2ccncc2)[C@@H](CO)O1`, the light induction is 0.322% (inactive).
The same measure, in the same setting: as for `CO[C@@H]1CN(C)C(=O)c2cc(NC(=O)C3CC3)ccc2OC[C@H](C)N(C(=O)NC(C)C)C[C@H]1C`, the figure is 1.05% (inactive).
Take `CCn1nnc(NCc2ccc(N3CCCC3)cc2)n1`: the light induction is 10.7% (inactive).
Regarding `Cc1noc(C)c1NC(=O)N(C)C[C@@H]1Oc2ccc(NC(=O)CCC(F)(F)F)cc2C(=O)N([C@@H](C)CO)C[C@@H]1C`, the light induction was 0.322% (inactive).
The same measure, in the same setting: to `CC(C)c1cccc(NC(=O)C[C@H]2CC[C@H]3[C@@H](COc4ccc(NC(=O)c5ccc(C#N)cc5)cc4C(=O)N3C)O2)c1` belongs 0.322% (inactive); to `COc1ccc(-c2ccc([C@@H]3[C@H](C#N)N(C(=O)NC4CCCCC4)[C@H]3CO)cc2)cc1`, -0.497% (inactive); to `COc1ccc(C#Cc2cnc3c(c2)C(=O)N([C@@H](C)CO)C[C@H](C)[C@H](CN(C)C(=O)CC2CC2)O3)cc1`, 0% (inactive).
In the case of `Cc1ccccc1-c1ccc2c(c1)O[C@H](CN(C)Cc1ccc(C(=O)O)cc1)[C@@H](C)CN([C@H](C)CO)S2(=O)=O`, the light induction is -0.148% (inactive).
As for `Cc1noc(C)c1NC(=O)N(C)C[C@H]1Oc2ccc(NC(=O)CCC(F)(F)F)cc2C(=O)N([C@H](C)CO)C[C@H]1C`, the light induction was 0% (inactive).
Same read-out and setting: as for `C[C@H](NC(=O)C[C@@H]1CC[C@H]2[C@H](COc3ccc(NS(=O)(=O)c4ccc(Cl)cc4)cc3C(=O)N2C)O1)c1ccccc1`, the figure is 0.158% (inactive); as for `COc1ccc(C#Cc2ccc3c(c2)O[C@H](CN(C)C(=O)CN2CCOCC2)[C@@H](C)CN([C@@H](C)CO)S3(=O)=O)cc1`, 0% (inactive); as for `Cc1ccc2cc3c(NC(=O)c4ccco4)nn(CC(C)C)c3nc2c1`, 2.93% (inactive).
`CO[C@H]1CN(C)C(=O)c2cc(NS(=O)(=O)c3c(C)noc3C)ccc2OC[C@H](C)NC[C@@H]1C`: the light induction was 0% (inactive).
With `CO[C@@H]1CC[C@@H]2CCOc3ccc(C#N)cc3C(=O)N(C)C[C@H](C)C(=O)N(C)C[C@H]1O2`, the light induction was 0.497% (inactive).
Same read-out and setting: to `Cc1ccc2cc3c(NC(=O)c4ccccn4)nn(C)c3nc2c1` belongs -0.663% (inactive); to `CCCN(C)C[C@@H]1Oc2cc(C#Cc3cccc(OC)c3)ccc2S(=O)(=O)N([C@@H](C)CO)C[C@@H]1C`, -0.148% (inactive); to `C[C@H](CO)N1C[C@H](C)[C@@H](CN(C)S(=O)(=O)c2ccccc2F)Oc2cc(-c3ccncc3)ccc2S1(=O)=O`, 0% (inactive).

The subject of another assay is V. cholerae BH1578 lux reporter, luminescence, 6 h. Described as above.
Conditions: not given
For the compound `C[C@H](CO)N1C[C@H](C)[C@@H](CN(C)S(=O)(=O)c2ccccc2)Oc2c(NC(=O)Nc3ccc4c(c3)OCO4)cccc2C1=O`, the AC40 was > 16 µM (inactive).
Consider `CCn1nnnc1NCc1ccc(N2CCCC2)cc1`, for which the AC40 is < 0.135 µM.
Consider `COc1ccc(-c2ccc([C@H]3[C@@H](C#N)N(C(=O)NC4CCCCC4)[C@H]3CO)cc2)cc1`, for which the AC40 is > 35 µM (inactive).
As for `CCCn1nnnc1NCc1ccc(N2CCCC2)cc1`, the AC40 was < 0.135 µM.
Still for that read-out and setting: as for `O=C(NC1CCCCC1)C(=O)c1c[nH]c2ccccc12`, the figure is > 35 µM (inactive); as for `Cc1cc(C)c2c(NC(=O)c3ccco3)nn(C)c2n1`, > 35 µM (inactive).
The same measure, in the same setting: to `CC(C)COC(=O)CNc1n[nH]c(=S)[nH]c1=O` belongs > 35 µM (inactive); to `Cn1c(C(=O)NC2CCCCC2)cc2c(=O)n(C)c3ccccc3c21`, > 35 µM (inactive).
On the same count and under the same terms, to `Cc1ccc2cc3c(NC(=O)C4CCCCC4)nn(C)c3nc2c1` belongs < 0.135 µM; to `CCn1nc(NC(=O)c2ccco2)c2cc3ccc(C)cc3nc21`, > 35 µM (inactive); to `Cc1cccc2cc3c(NC(=O)c4ccco4)nn(C)c3nc12`, < 0.135 µM.
For the compound `CCn1nc(NC(=O)c2ccco2)c2cc3ccccc3nc21`, the AC40 is 5.43 µM.

The values above are taken from PubChem BioAssay AID651854 (Broad Institute, 2012).
